Experimental data: ChEMBL document CHEMBL3808373 (Bioorg Med Chem Lett, 2016)
Values belong to the compound of their own block, whether it stands above or below them. The source made the active and inactive calls. The rule behind the calls is not given here.

Assays:
[1] = biological target: T1, Sodium channel protein type 1 subunit alpha (Homo sapiens, UniProt P35498); test: Inhibition of 1 Hz stimulated Nav1.1 (unknown origin) by manual patch clamp method
[2] = Ratio of drug level in brain to plasma in dog; format: ADME, cell-free, Canis lupus familiaris; conditions: read-out: BPR
[3] = biological target: T2, Sodium channel protein type 2 subunit alpha (Homo sapiens, UniProt Q99250); test: Inhibition of 10 Hz stimulated Nav1.2 (unknown origin) by manual patch clamp method
[4] = biological target: Voltage-gated inwardly rectifying potassium channel KCNH2 (Homo sapiens, UniProt Q12809); test: Inhibition of human ERG
[5] = biological target: T2, Sodium channel protein type 2 subunit alpha; test: Inhibition of 1 Hz stimulated Nav1.2 (unknown origin) by manual patch clamp method
[6] = Ratio of drug level in brain to plasma in rat; format: ADME, cell-free; conditions: read-out: BPR
[7] = biological target: T1, Sodium channel protein type 1 subunit alpha; test: Inhibition of 10 Hz stimulated Nav1.1 (unknown origin) by manual patch clamp method
[8] = Half life in dog microsomes; format: ADME, Canis lupus familiaris, Microsome
[9] = biological target: T3, Sodium channel protein type 5 subunit alpha (Homo sapiens, UniProt Q14524); conditions: HEK293, human, read-out: INH
Description: Inhibition of 0.1 Hz stimulated human Nav1.5alpha expressed in HEK293 cells assessed as inhibition of late sodium current at 10 uM with 3 compound additions for 7 to 8 mins at holding potential -120 mV in presence of late sodium current activator tefluthrin/ATX2 measured immediately after third compound addition by PatchXpress method relative to control

[10] = Lipophilicity, log D of compound; format: physicochemical; conditions: octanol/water
[11] = Half life in human microsomes; format: ADME, Microsome
[12] = biological target: T3, Sodium channel protein type 5 subunit alpha; test: Inhibition of 0.1 Hz stimulated human Nav1.5alpha expressed in HEK293 cells assessed as inhibition of late sodium current with 3 compound additions for 7 to 8 mins at holding potential -120 mV in presence of late sodium current activator tefluthrin/ATX2 measured immediately after third compound addition by PatchXpress method; format: cell-based
[13] = biological target: T1, Sodium channel protein type 1 subunit alpha; test: Inhibition of 10 Hz stimulated Nav1.1 (unknown origin) assessed as inhibition of peak sodium current at 10 uM by automated patch clamp method relative to control
[14] = Half life in rat microsomes; format: ADME, Microsome
[15] = biological target: T4, Nav1.5 (peak sodium current, use-dependent block) (Homo sapiens, UniProt Q14524); test: Inhibition of 3 Hz stimulated human Nav1.5alpha expressed in HEK293 cells assessed as use dependent block of peak sodium current at 10 uM with 3 compound additions at 60 sec intervals at holding potential -100 mV incubated for 320 sec after third compound addition followed by second period of 3 Hz stimulation by PatchXpress method relative to control; format: cell-based; conditions: HEK293 cells expressing human Nav1.5alpha
[16] = biological target: T4, Nav1.5 (peak sodium current, use-dependent block); test: Inhibition of 3 Hz stimulated human Nav1.5alpha expressed in HEK293 cells assessed as use dependent block of peak sodium current at 0.3 uM with 3 compound additions at 60 sec intervals at holding potential -100 mV incubated for 320 sec after third compound addition followed by second period of 3 Hz stimulation by PatchXpress method relative to control; format: cell-based; conditions: HEK293 cells expressing human Nav1.5alpha
[17] = Clearance in rat microsomes; format: ADME, Microsome
[18] = Oral bioavailability in dog; format: ADME, organism-based, Canis lupus familiaris; conditions: in vivo
[19] = biological target: T3, Sodium channel protein type 5 subunit alpha; test: Inhibition of 1 Hz stimulated Nav1.5 (unknown origin) assessed as inhibition of peak sodium current by manual patch clamp method
[20] = species: Rattus norvegicus; test: Toxicity in rat assessed as liver lesions after 7 days; format: organism-based; conditions: in vivo, 168 h
[21] = Inhibition of Nav1.5 in isolated rabbit heart assessed as inhibition of ATX2-induced prolongation of mean action potential duration; conditions: Oryctolagus cuniculus
[22] = Oral bioavailability in rat; format: ADME, organism-based; conditions: in vivo
[23] = Plasma protein binding in dog; format: ADME, cell-free, Canis lupus familiaris; conditions: read-out: PPB (converted)
[24] = Clearance in rat; format: ADME, organism-based; conditions: in vivo
[25] = Clearance in cynomolgus monkey microsomes; format: ADME, Macaca fascicularis, Microsome
[26] = biological target: T3, Sodium channel protein type 5 subunit alpha; test: Inhibition of 3 Hz stimulated Nav1.5 (unknown origin) assessed as inhibition of peak sodium current by manual patch clamp method
[27] = Volume of distribution in dog; format: ADME, organism-based, Canis lupus familiaris; conditions: in vivo
[28] = Terminal half life in rat; format: ADME, organism-based; conditions: in vivo, read-out: beta t1/2 (converted)
[29] = biological target: T3, Sodium channel protein type 5 subunit alpha; test: Inhibition of Nav1.5 (unknown origin) assessed as inhibition of late sodium current by manual patch clamp method
[30] = test system: Heart; test: Protection against […]/clofilium-induced ventricular arrhythmias in isolated rabbit heart assessed as inhibition of torsade des pointes at 3 uM; format: functional, tissue-based; conditions: Oryctolagus cuniculus, Cardiac ventricle
[31] = Plasma protein binding in rabbit; format: ADME, cell-free, Oryctolagus cuniculus; conditions: read-out: PPB (converted)
[32] = Volume of distribution in rat; format: ADME, organism-based; conditions: in vivo
[33] = species: Oryctolagus cuniculus; test: Inhibition of Nav1.5 in isolated rabbit heart assessed as inhibition of ATX2-induced prolongation of mean action potential duration at 10 to 100000 nM relative to control
[34] = Volume of distribution in cynomolgus monkey; format: ADME, organism-based, Macaca fascicularis; conditions: in vivo
[35] = Plasma protein binding in human; format: ADME, cell-free; conditions: read-out: PPB (converted)
[36] = Volume of distribution in rabbit; format: ADME, organism-based, Oryctolagus cuniculus; conditions: in vivo
[37] = Clearance in cynomolgus monkey; format: ADME, organism-based, Macaca fascicularis; conditions: in vivo
[38] = Clearance in human microsomes; format: ADME, Microsome
[39] = Terminal half life in dog; format: ADME, organism-based, Canis lupus familiaris; conditions: in vivo, read-out: beta t1/2 (converted)
[40] = Terminal half life in monkey; format: ADME, organism-based, Macaca mulatta; conditions: rhesus monkey, in vivo; read-out: beta t1/2 (converted)
[41] = Terminal half life in rabbit; format: ADME, organism-based, Oryctolagus cuniculus; conditions: in vivo, read-out: beta t1/2 (converted)
[42] = Clearance in dog; format: ADME, organism-based, Canis lupus familiaris; conditions: in vivo
[43] = Clearance in dog microsomes; format: ADME, Canis lupus familiaris, Microsome
[44] = Plasma protein binding in rat; format: ADME, cell-free; conditions: read-out: PPB (converted)
[45] = Clearance in rabbit; format: ADME, organism-based, Oryctolagus cuniculus; conditions: in vivo
[46] = biological target: T3, Sodium channel protein type 5 subunit alpha; test: Inhibition of 0.1 Hz stimulated human Nav1.5alpha expressed in HEK293 cells assessed as inhibition of late sodium current at 1 uM with 3 compound additions for 7 to 8 mins at holding potential -120 mV in presence of late sodium current activator tefluthrin/ATX2 measured immediately after third compound addition by PatchXpress method relative to control; format: cell-based
[47] = biological target: T3, Sodium channel protein type 5 subunit alpha; test: Inhibition of 0.1 Hz stimulated human Nav1.5alpha expressed in HEK293 cells assessed as inhibition of late sodium current at 300 nM with 3 compound additions for 7 to 8 mins at holding potential -120 mV in presence of late sodium current activator tefluthrin/ATX2 measured immediately after third compound addition by PatchXpress method relative to control; format: cell-based
[48] = biological target: T4, Nav1.5 (peak sodium current, use-dependent block); test: Inhibition of 3 Hz stimulated human Nav1.5alpha expressed in HEK293 cells assessed as use dependent block of peak sodium current at 1 uM with 3 compound additions at 60 sec intervals at holding potential -100 mV incubated for 320 sec after third compound addition followed by second period of 3 Hz stimulation by PatchXpress method relative to control; format: cell-based; conditions: HEK293 cells expressing human Nav1.5alpha

T2 sequence (Q99250 whole entry): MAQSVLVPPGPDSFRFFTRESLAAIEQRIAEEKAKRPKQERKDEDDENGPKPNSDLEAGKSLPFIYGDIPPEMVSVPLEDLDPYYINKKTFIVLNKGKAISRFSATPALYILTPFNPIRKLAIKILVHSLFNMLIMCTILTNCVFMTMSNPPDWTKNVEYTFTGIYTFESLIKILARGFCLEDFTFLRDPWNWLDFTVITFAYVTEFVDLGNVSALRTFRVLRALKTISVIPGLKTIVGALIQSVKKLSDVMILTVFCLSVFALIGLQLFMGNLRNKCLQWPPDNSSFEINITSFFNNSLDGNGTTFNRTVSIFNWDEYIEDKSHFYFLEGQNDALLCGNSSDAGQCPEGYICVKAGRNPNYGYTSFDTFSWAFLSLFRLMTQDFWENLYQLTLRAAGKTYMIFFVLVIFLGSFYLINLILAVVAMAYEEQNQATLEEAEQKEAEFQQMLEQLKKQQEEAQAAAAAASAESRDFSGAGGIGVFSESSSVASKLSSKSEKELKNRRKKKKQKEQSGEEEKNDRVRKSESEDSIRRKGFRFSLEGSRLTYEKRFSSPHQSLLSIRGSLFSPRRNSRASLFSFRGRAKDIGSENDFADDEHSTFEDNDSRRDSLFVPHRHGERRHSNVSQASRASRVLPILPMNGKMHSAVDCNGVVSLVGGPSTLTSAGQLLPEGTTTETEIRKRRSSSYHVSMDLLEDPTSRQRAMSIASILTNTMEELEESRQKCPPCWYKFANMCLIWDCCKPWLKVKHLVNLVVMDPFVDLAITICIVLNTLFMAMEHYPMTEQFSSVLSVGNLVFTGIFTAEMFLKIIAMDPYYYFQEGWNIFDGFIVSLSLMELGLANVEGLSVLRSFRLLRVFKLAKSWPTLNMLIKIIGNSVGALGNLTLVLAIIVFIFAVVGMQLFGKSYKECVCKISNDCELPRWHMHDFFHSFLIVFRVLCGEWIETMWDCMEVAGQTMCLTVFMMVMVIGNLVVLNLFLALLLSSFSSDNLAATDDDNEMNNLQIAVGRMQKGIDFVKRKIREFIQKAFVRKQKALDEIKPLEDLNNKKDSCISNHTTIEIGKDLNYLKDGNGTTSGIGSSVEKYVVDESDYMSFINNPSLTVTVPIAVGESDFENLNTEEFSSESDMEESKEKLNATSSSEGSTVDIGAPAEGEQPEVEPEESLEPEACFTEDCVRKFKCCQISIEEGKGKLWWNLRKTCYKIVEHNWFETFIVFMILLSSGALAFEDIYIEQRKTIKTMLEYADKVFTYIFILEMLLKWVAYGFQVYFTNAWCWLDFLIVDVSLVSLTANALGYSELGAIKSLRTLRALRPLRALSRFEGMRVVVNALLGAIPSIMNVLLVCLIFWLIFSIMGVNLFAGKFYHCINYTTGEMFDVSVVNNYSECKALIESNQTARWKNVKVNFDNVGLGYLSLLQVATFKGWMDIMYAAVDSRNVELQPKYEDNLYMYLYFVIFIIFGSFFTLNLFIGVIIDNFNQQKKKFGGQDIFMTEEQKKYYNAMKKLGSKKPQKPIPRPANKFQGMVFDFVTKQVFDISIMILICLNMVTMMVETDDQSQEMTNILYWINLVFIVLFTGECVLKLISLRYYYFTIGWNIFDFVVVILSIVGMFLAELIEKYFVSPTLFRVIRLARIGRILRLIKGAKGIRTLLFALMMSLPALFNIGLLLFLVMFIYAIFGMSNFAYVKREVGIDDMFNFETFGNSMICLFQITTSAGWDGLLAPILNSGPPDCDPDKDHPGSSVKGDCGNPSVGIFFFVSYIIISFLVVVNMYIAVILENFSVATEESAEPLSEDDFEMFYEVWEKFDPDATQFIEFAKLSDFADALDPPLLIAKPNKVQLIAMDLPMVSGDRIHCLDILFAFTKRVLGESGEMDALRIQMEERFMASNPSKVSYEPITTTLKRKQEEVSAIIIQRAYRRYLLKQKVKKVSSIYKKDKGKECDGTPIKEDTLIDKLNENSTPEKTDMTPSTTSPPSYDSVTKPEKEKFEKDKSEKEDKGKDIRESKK
T4 sequence (Q14524 whole entry): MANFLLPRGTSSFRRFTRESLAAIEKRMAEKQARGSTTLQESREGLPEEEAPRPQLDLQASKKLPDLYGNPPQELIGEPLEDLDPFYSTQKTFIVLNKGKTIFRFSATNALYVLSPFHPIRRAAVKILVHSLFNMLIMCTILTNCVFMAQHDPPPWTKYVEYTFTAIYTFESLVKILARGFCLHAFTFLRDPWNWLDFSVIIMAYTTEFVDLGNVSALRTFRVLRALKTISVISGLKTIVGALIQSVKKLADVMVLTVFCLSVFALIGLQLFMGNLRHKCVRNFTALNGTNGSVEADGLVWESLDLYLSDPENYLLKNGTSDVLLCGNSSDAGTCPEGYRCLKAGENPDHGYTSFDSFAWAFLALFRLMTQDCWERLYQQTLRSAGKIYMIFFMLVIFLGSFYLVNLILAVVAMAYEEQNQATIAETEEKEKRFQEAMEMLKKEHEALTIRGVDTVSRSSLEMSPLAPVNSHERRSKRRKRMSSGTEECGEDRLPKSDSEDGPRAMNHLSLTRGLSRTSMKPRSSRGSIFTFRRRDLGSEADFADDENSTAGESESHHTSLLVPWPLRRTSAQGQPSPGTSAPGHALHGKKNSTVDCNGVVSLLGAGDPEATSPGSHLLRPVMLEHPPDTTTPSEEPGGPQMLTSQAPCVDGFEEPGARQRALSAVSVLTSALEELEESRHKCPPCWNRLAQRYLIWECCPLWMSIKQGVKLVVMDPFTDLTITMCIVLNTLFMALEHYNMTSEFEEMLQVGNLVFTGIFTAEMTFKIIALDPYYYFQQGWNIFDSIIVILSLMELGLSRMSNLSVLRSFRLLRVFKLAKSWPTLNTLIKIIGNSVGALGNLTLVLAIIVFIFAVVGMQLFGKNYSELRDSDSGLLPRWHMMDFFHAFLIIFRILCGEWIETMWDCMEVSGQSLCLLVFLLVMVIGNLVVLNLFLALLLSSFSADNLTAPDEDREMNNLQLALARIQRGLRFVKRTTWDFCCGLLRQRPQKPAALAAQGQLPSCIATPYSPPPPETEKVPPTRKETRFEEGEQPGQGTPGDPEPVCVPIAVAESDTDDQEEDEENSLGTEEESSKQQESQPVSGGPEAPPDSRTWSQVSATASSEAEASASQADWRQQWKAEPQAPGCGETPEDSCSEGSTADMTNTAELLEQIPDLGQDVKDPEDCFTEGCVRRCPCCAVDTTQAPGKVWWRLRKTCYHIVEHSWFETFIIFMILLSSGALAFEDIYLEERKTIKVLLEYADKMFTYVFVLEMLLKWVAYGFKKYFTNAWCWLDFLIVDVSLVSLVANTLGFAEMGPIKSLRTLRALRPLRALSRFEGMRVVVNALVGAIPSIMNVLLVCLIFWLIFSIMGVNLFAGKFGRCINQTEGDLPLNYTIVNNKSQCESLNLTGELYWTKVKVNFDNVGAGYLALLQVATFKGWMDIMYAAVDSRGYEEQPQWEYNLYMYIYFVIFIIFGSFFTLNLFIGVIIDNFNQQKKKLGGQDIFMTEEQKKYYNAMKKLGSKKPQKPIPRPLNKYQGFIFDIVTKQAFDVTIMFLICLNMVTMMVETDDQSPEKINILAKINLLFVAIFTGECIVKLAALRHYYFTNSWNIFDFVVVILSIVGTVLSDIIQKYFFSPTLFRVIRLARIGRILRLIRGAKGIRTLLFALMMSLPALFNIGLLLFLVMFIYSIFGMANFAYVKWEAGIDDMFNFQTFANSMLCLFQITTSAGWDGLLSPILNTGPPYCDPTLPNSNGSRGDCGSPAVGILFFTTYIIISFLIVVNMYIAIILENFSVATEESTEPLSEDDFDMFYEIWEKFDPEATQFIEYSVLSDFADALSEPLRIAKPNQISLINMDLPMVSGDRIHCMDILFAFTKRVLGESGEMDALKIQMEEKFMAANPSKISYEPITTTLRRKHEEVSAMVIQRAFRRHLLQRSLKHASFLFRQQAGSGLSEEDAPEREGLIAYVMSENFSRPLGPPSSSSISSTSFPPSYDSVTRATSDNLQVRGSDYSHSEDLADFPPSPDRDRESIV
Voltage-gated inwardly rectifying potassium channel KCNH2, sequence (Q12809 whole entry): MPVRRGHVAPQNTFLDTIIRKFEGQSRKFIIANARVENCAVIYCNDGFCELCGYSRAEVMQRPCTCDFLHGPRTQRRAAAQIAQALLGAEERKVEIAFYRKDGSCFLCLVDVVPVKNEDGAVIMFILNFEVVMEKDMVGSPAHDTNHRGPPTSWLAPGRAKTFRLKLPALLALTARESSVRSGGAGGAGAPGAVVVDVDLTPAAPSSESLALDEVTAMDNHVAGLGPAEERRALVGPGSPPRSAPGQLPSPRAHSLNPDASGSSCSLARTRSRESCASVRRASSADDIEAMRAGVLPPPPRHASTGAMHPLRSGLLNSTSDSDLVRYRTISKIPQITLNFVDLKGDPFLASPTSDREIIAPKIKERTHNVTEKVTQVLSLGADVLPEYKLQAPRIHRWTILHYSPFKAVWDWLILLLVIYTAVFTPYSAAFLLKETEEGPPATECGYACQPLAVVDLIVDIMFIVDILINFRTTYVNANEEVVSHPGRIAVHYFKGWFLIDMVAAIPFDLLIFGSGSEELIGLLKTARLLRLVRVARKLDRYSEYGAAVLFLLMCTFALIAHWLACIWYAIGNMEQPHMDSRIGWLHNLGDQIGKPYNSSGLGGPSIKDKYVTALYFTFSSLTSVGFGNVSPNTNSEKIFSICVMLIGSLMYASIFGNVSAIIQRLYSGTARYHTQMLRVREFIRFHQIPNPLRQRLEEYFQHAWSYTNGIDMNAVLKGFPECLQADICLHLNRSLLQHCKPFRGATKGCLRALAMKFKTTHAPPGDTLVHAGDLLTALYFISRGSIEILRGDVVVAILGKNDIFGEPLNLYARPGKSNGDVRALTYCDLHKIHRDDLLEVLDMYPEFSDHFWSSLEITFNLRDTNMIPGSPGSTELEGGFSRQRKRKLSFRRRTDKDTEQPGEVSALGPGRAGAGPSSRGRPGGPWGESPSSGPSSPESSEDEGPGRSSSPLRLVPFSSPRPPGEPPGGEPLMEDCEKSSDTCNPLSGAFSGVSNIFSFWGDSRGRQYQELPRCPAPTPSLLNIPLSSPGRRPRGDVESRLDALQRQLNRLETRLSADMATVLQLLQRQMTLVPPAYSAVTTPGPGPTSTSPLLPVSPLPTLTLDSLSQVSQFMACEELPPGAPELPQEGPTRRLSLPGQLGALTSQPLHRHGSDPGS

half-life [8]: 3.02 h | logD [10]: 2.8 | half-life [11]: 1.35 h | inhibition [13]: 56% | half-life [14]: 0.533 h
Structure (SMILES): O=c1n(Cc2noc(CO)n2)nc2ccc(-c3ccc(Oc4ccc(F)cc4)cc3)cn12
inhibition at 10 µM [9]: ≥ 70% | IC50 [12]: 981 µM | inhibition at 320 s, 10 µM [15]: 21%

half-life [8]: 3.62 h | logD [10]: 3 | half-life [11]: 2.12 h | half-life [14]: 1.42 h
Structure (SMILES): Cc1noc(Cn2nc3ccc(-c4ccc(Oc5ccc(F)cc5)cc4)cn3c2=O)n1
inhibition at 320 s, 0.3 µM [16]: 33% | inhibition at 10 µM [9]: ≥ 70% | IC50 [12]: 215 µM

half-life [8]: 5.9 h | half-life [11]: 6.58 h | inhibition [13]: 79% | half-life [14]: 6.5 h
Structure (SMILES): Cc1nc(Cn2nc3ccc(-c4ccc(Oc5ccc(Cl)cc5)cc4)cn3c2=O)no1
inhibition at 10 µM [9]: ≥ 70% | inhibition at 0.3 µM [47]: 60% | inhibition at 320 s, 1 µM [48]: 40%

The remaining lines, values behind:

Structure (SMILES): FC(F)(F)Oc1ccc(-c2ccc3nnc(C(F)(F)F)n3c2)cc1
IC50 [1]: > 10 µM | Kp [2]: 3 | IC50 [3]: 7.9 µM | IC50 [4]: > 10 µM | IC50 [5]: 0.4 µM | Kp [6]: 5 | IC50 [7]: 0.4 µM

Structure (SMILES): Cc1nc(Cn2nc3ccc(-c4ccc(OC(F)(F)F)cc4)cn3c2=O)no1
inhibition at 10 µM [9]: ≥ 70% | half-life [11]: 6.58 h | IC50 [12]: 3.3 µM | inhibition [13]: 27% | half-life [14]: 6.05 h | inhibition at 320 s, 10 µM [15]: 10%

Structure (SMILES): O=c1n(Cc2nc(-c3c(Cl)cccc3Cl)no2)nc2ccc(-c3ccc(OC(F)(F)F)cc3)cn12
inhibition at 10 µM [9]: ≥ 70% | IC50 [12]: 3.5 µM

Structure (SMILES): Cn1cnc(Cn2nc3ccc(-c4ccc(OC(F)(F)F)cc4)cn3c2=O)n1
IC50 [12]: > 10 µM

Structure (SMILES): O=c1n(Cc2nc(C3CC3)co2)nc2ccc(-c3ccc(OC(F)(F)F)cc3)cn12
half-life [8]: 1.8 h | inhibition at 10 µM [9]: ≥ 70% | half-life [11]: 0.65 h | IC50 [12]: 3 µM | half-life [14]: 0.65 h

Structure (SMILES): Cc1noc(Cn2nc3ccc(-c4ccc(OC(F)(F)F)cc4)cn3c2=O)n1
CL [17]: 8.67 mL/min/kg | IC50 [1]: > 10 µM | half-life [8]: 3.93 h | bioavailability [18]: 72.8% | IC50 [19]: > 10 µM | Activity [20]: Toxic | IC50 [21]: 1.2 µM | bioavailability [22]: 44.3% | fraction unbound [23]: 0.057 | clearance [24]: 12 mL/min/kg | Kp [2]: > 20 | CL [25]: 6.7 mL/min/kg | IC50 [26]: > 10 µM | Vd [27]: 4.23 L/kg | half-life [28]: 2.1 h | IC50 [29]: 1.33 µM | inhibition at 10 µM [9]: ≥ 70% | inhibition [30]: Active | fraction unbound [31]: 0.043 | Vd [32]: 1.95 L/kg | IC50 [3]: 8.1 µM | half-life [11]: 5.13 h | inhibition [33]: 90% | Vd [34]: 2.29 L/kg | fraction unbound [35]: 0.05 | Vd [36]: 2.24 L/kg | clearance [37]: 7.97 mL/min/kg | IC50 [4]: > 10 µM | IC50 [12]: 1.9 µM | CL [38]: 3.5 mL/min/kg | IC50 [5]: 4.2 µM | half-life [39]: 17.3 h | inhibition [13]: 8% | half-life [14]: 3.3 h | half-life [40]: 4.78 h | half-life [41]: 4.81 h | Kp [6]: > 20 | clearance [42]: 7.98 mL/min/kg | IC50 [7]: 4.8 µM | inhibition at 320 s, 10 µM [15]: 10% | CL [43]: 4.33 mL/min/kg | fraction unbound [44]: 0.046 | clearance [45]: 7.03 mL/min/kg | inhibition at 1 µM [46]: 31%
